In US20250171437A1 (Agios Pharmaceuticals,Inc., priority 2022, published 2025):

Biological target: T1, human PAH with the R408W mutation (A375 R408W cells) (Homo sapiens, UniProt P00439, R408W)
T1 construct: expressed in transfected cells
T1 sequence (P00439 1-452 R408W): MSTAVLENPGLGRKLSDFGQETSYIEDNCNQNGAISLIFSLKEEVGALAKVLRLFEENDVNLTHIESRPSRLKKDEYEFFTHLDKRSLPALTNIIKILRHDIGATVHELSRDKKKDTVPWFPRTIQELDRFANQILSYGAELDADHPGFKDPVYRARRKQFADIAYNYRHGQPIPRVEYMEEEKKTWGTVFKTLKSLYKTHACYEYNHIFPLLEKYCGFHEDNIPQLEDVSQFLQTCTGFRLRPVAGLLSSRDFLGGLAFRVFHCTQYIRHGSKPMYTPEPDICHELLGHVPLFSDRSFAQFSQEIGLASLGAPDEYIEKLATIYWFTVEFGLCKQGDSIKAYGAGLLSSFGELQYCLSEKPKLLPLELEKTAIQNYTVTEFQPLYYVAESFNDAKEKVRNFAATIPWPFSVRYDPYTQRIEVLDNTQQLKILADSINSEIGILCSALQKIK
Assay: Cell Based Phenylalanine Flux Assay
Conditions: A375 R408W cells; 24 hrs with compound, then 20 μM sepiapterin and 800 μM 13C9,15N-Phenylalanine for 4 hours; 13C-Tyrosine by LC-MS; average where tested multiple times
Outline: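 A375 cells stably expressing human PAH R408W treated 24 h at 37° C with a 10-point 2-fold dose curve in duplicate, 0.5% DMSO. Then 20 μM sepiapterin and 800 μM 13C9,15N-Phe added for 4 h; 13C-Tyr in media measured by LC-MS to give AC50.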

Row | SMILES | AC50 [nM]
1 | O=C(c1oc(-c2ccc(F)cn2)nc1C(F)F)N1CCc2[nH]cnc2[C@H]1c1nc2cccc(F)c2o1 [Example 632, (S)-(4-(difluoromethyl)-2-(5-fluoropyridin-2-yl)oxazol-5-yl)(4-(7-fluorobenzo[d]oxazol-2-yl)-6,7-dihydro-1H-imidazo[4,5-c]pyridin-5(4H)-yl)methanone] | ≤ 500
2 | O=C(c1oc(-c2ccc(C(F)(F)F)cn2)nc1C(F)F)N1CCc2[nH]cnc2[C@H]1c1nc2cccc(F)c2o1 [Example 633, (S)-(4-(difluoromethyl)-2-(5-(trifluoromethyl)pyridin-2-yl)oxazol-5-yl)(4-(7-fluorobenzo[d]oxazol-2-yl)-6,7-dihydro-1H-imidazo[4,5-c]pyridin-5(4H)-yl)methanone] | ≤ 500
3 | O=C(c1oc(-c2ccc(C(F)(F)F)cn2)nc1C(F)F)N1CCc2[nH]cnc2[C@@H]1c1nc2cccc(F)c2o1 [Example 634, (R)-(4-(difluoromethyl)-2-(5-(trifluoromethyl)pyridin-2-yl)oxazol-5-yl)(4-(7-fluorobenzo[d]oxazol-2-yl)-6,7-dihydro-1H-imidazo[4,5-c]pyridin-5(4H)-yl)methanone] | ≤ 500
4 | O=C(c1oc(-c2ccccn2)nc1C(F)(F)F)N1CCc2[nH]cnc2[C@@H]1c1nc2cccc(F)c2o1 [Example 637, (R)-(4-(7-fluorobenzo[d]oxazol-2-yl)-6,7-dihydro-1H-imidazo[4,5-c]pyridin-5(4H)-yl)(2-(pyridin-2-yl)-4-(trifluoromethyl)oxazol-5-yl)methanone] | ≤ 500
5 | O=C(c1oc(-c2ccccn2)nc1C(F)(F)F)N1CCc2[nH]cnc2[C@H]1c1nc2cccc(F)c2o1 [Example 638, (S)-(4-(7-fluorobenzo[d]oxazol-2-yl)-6,7-dihydro-1H-imidazo[4,5-c]pyridin-5(4H)-yl)(2-(pyridin-2-yl)-4-(trifluoromethyl)oxazol-5-yl)methanone] | ≤ 500
6 | Cn1cnc(-c2nc(C(F)F)c(C(=O)N3CCc4[nH]cnc4[C@H]3c3nc4cc(F)ccc4o3)o2)c1 [Example 641, (S)-(4-(difluoromethyl)-2-(1-methyl-1H-imidazol-4-yl)oxazol-5-yl)(4-(5-fluorobenzo[d]oxazol-2-yl)-6,7-dihydro-1H-imidazo[4,5-c]pyridin-5(4H)-yl)methanone] | ≤ 500
7 | Cn1cnc(-c2nc(C(F)F)c(C(=O)N3CCc4[nH]cnc4[C@@H]3c3nc4cc(F)ccc4o3)o2)c1 [Example 642, (R)-(4-(difluoromethyl)-2-(1-methyl-1H-imidazol-4-yl)oxazol-5-yl)(4-(5-fluorobenzo[d]oxazol-2-yl)-6,7-dihydro-1H-imidazo[4,5-c]pyridin-5(4H)-yl)methanone] | 1000 to 5000
8 | COc1cc(F)c2oc([C@@H]3c4nc[nH]c4CCN3C(=O)c3oc(C(C)(C)O)nc3C(F)F)nc2c1 [Example 643, (S)-(4-(difluoromethyl)-2-(2-hydroxypropan-2-yl)oxazol-5-yl)(4-(7-fluoro-5-methoxybenzo[d]oxazol-2-yl)-6,7-dihydro-1H-imidazo[4,5-c]pyridin-5(4H)-yl)methanone] | ≤ 500
9 | COc1cc(F)c2oc([C@H]3c4nc[nH]c4CCN3C(=O)c3oc(C(C)(C)O)nc3C(F)F)nc2c1 [Example 644, (R)-(4-(difluoromethyl)-2-(2-hydroxypropan-2-yl)oxazol-5-yl)(4-(7-fluoro-5-methoxybenzo[d]oxazol-2-yl)-6,7-dihydro-1H-imidazo[4,5-c]pyridin-5(4H)-yl)methanone] | ≤ 500
10 | O=C(c1oc(N2CCOCC2)nc1C(F)F)N1CCc2[nH]cnc2[C@@H]1c1nc2cccc(F)c2o1 [Example 647, (R)-(4-(difluoromethyl)-2-morpholinooxazol-5-yl)(4-(7-fluorobenzo[d]oxazol-2-yl)-6,7-dihydro-1H-imidazo[4,5-c]pyridin-5(4H)-yl)methanone] | 500 to 1000
11 | O=C(c1oc(N2CCOCC2)nc1C(F)F)N1CCc2[nH]cnc2[C@H]1c1nc2cccc(F)c2o1 [Example 648, (S)-(4-(difluoromethyl)-2-morpholinooxazol-5-yl)(4-(7-fluorobenzo[d]oxazol-2-yl)-6,7-dihydro-1H-imidazo[4,5-c]pyridin-5(4H)-yl)methanone] | ≤ 500
12 | CC(F)(F)c1ncoc1C(=O)N1CCc2[nH]cnc2[C@H]1c1nc2ccc(F)cc2o1 [Example 649, (S)-(4-(1,1-difluoroethyl)oxazol-5-yl)(4-(6-fluorobenzo[d]oxazol-2-yl)-6,7-dihydro-1H-imidazo[4,5-c]pyridin-5(4H)-yl)methanone] | ≤ 500
13 | CC(F)(F)c1ncoc1C(=O)N1CCc2[nH]cnc2[C@@H]1c1nc2ccc(F)cc2o1 [Example 650, (R)-(4-(1,1-difluoroethyl)oxazol-5-yl)(4-(6-fluorobenzo[d]oxazol-2-yl)-6,7-dihydro-1H-imidazo[4,5-c]pyridin-5(4H)-yl)methanone] | 500 to 1000
14 | Cc1cc(F)cc2nc([C@@H]3c4nc[nH]c4CCN3C(=O)c3oc(C(C)(C)O)nc3C(F)F)oc12 [Example 655, (S)-(4-(difluoromethyl)-2-(2-hydroxypropan-2-yl)oxazol-5-yl)(4-(5-fluoro-7-methylbenzo[d]oxazol-2-yl)-6,7-dihydro-1H-imidazo[4,5-c]pyridin-5(4H)-yl)methanone] | ≤ 500
15 | Cc1cc(F)cc2nc([C@H]3c4nc[nH]c4CCN3C(=O)c3oc(C(C)(C)O)nc3C(F)F)oc12 [Example 656, (R)-(4-(difluoromethyl)-2-(2-hydroxypropan-2-yl)oxazol-5-yl)(4-(5-fluoro-7-methylbenzo[d]oxazol-2-yl)-6,7-dihydro-1H-imidazo[4,5-c]pyridin-5(4H)-yl)methanone] | 1000 to 5000

Now from value to molecule:

Row | AC50 [nM] | SMILES
16 | 500 to 1000 | Cn1cc(-c2nc(C(F)F)c(C(=O)N3CCc4[nH]cnc4[C@@H]3c3nc4cccc(F)c4o3)o2)cn1 [Example 635, (R)-(4-(difluoromethyl)-2-(1-methyl-1H-pyrazol-4-yl)oxazol-5-yl)(4-(7-fluorobenzo[d]oxazol-2-yl)-6,7-dihydro-1H-imidazo[4,5-c]pyridin-5(4H)-yl)methanone]
17 | ≤ 500 | Cn1cc(-c2nc(C(F)F)c(C(=O)N3CCc4[nH]cnc4[C@H]3c3nc4cccc(F)c4o3)o2)cn1 [Example 636, (S)-(4-(difluoromethyl)-2-(1-methyl-1H-pyrazol-4-yl)oxazol-5-yl)(4-(7-fluorobenzo[d]oxazol-2-yl)-6,7-dihydro-1H-imidazo[4,5-c]pyridin-5(4H)-yl)methanone]
18 | ≤ 500 | COc1cccc2oc([C@@H]3c4nc[nH]c4CCN3C(=O)c3nnc(-c4ccn(C)n4)o3)nc12 [Example 639, (S)-(4-(4-methoxybenzo[d]oxazol-2-yl)-6,7-dihydro-1H-imidazo[4,5-c]pyridin-5(4H)-yl)(5-(1-methyl-1H-pyrazol-3-yl)-1,3,4-oxadiazol-2-yl)methanone]
19 | 1000 to 5000 | COc1cccc2oc([C@H]3c4nc[nH]c4CCN3C(=O)c3nnc(-c4ccn(C)n4)o3)nc12 [Example 640, (R)-(4-(4-methoxybenzo[d]oxazol-2-yl)-6,7-dihydro-1H-imidazo[4,5-c]pyridin-5(4H)-yl)(5-(1-methyl-1H-pyrazol-3-yl)-1,3,4-oxadiazol-2-yl)methanone]
20 | 1000 to 5000 | Cn1cc(-c2nnc(C(=O)N3CCc4[nH]cnc4[C@H]3c3nc4c(F)c(F)ccc4o3)o2)cn1 [Example 645, (S)-(4-(4,5-difluorobenzo[d]oxazol-2-yl)-6,7-dihydro-1H-imidazo[4,5-c]pyridin-5(4H)-yl)(5-(1-methyl-1H-pyrazol-4-yl)-1,3,4-oxadiazol-2-yl)methanone]
21 | 1000 to 5000 | Cn1cc(-c2nnc(C(=O)N3CCc4[nH]cnc4[C@@H]3c3nc4c(F)c(F)ccc4o3)o2)cn1 [Example 646, (R)-(4-(4,5-difluorobenzo[d]oxazol-2-yl)-6,7-dihydro-1H-imidazo[4,5-c]pyridin-5(4H)-yl)(5-(1-methyl-1H-pyrazol-4-yl)-1,3,4-oxadiazol-2-yl)methanone]
22 | ≤ 500 | CC(F)(F)c1ncoc1C(=O)N1CCc2[nH]cnc2[C@H]1c1nc2c(F)cccc2o1 [Example 651, (S)-(4-(1,1-difluoroethyl)oxazol-5-yl)(4-(4-fluorobenzo[d]oxazol-2-yl)-6,7-dihydro-1H-imidazo[4,5-c]pyridin-5(4H)-yl)methanone]
23 | 1000 to 5000 | CC(F)(F)c1ncoc1C(=O)N1CCc2[nH]cnc2[C@@H]1c1nc2c(F)cccc2o1 [Example 652, (R)-(4-(1,1-difluoroethyl)oxazol-5-yl)(4-(4-fluorobenzo[d]oxazol-2-yl)-6,7-dihydro-1H-imidazo[4,5-c]pyridin-5(4H)-yl)methanone]
24 | ≤ 500 | Cc1ccc2oc([C@@H]3c4nc[nH]c4CCN3C(=O)c3nnc(-c4ncccc4F)o3)nc2c1 [Example 653, (S)-(5-(3-fluoropyridin-2-yl)-1,3,4-oxadiazol-2-yl)(4-(5-methylbenzo[d]oxazol-2-yl)-6,7-dihydro-1H-imidazo[4,5-c]pyridin-5(4H)-yl)methanone]
25 | 1000 to 5000 | Cc1ccc2oc([C@H]3c4nc[nH]c4CCN3C(=O)c3nnc(-c4ncccc4F)o3)nc2c1 [Example 654, (R)-(5-(3-fluoropyridin-2-yl)-1,3,4-oxadiazol-2-yl)(4-(5-methylbenzo[d]oxazol-2-yl)-6,7-dihydro-1H-imidazo[4,5-c]pyridin-5(4H)-yl)methanone]
